Measured values: US7094801B2, “Chalcone derivatives and their use to treat diseases” (Atherogenics, Inc., priority 2001, dated 2006)
Counter-ions that a name gives are not always drawn.

Tests used:
VCAM-1 = experiment: In Vitro VCAM-1 Assay (TNF-α stimulated HAEC or HPAEC, cell ELISA); type: cell-based, human; details: Homo sapiens, 16 h, TNF-α (1 ng/ml) stimulated HAEC or HPAEC, approximately 16 hours
Method: Cell Culture and compound dosing: Cultured primary human aortic (HAEC) or pulmonary (HPAEC) endothelial cells were obtained from Clonetics, Inc., and were used below passage 9. Cells were seeded in 96 well plates such that they would reach 90–95% confluency by the following day. On the following day the cells were stimulated with TNF-α (1 ng/ml) in the presence or absence of compounds dissolved in DMSO such that the final concentration of DMSO is 0.25% or less. To establish a dose curve for each compound, four concentrations in 2- to 5-fold increments were used. Cells were exposed to TNF-α and compounds for approximately 16 hours. The next day the cells were examined under microscope to score for visual signs of toxicity or cell stress.
Following 16 hr exposure to TNF-α and compound the media was discarded and the cells were washed once with Hanks Balanced Salt Solution (HBSS)/Phosphate buffered saline (PBS) (1:1). Primary antibodies against VCAM-1 (0.25 μg/ml in HBSS/PBS+5% FBS) were added and incubated for 30–60 minutes at 37° C. Cells were washed with HBSS/PBS three times, and secondary antibody Horse Radish Peroxidase (HRP)-conjugated goat anti-mouse IgG (1:500 in HBSS/PBS+5% FBS) were added and incubated for 30 minutes at 37° C. Cells were washed with HBSS/PBS four time and TMB substrate were added and incubated at room temperature in the dark until there was adequate development of blue color. The length of time of incubation was typically 5–15 minutes. 2N sulfuric acid was added to stop the color development and the data was collected by reading the absorbance on a BioRad ELISA plate reader at OD 450 nm. The results are expressed as IC50 values (the concentration (micromolar) of compound required to inhibit 50% of the maximal response of the control sample stimulated by TNF-α only).

SMILES	melting point	IC50 (VCAM-1)
COc1cc(OCCN2CCOCC2)c(/C=C/C(=O)c2ccc(S(N)(=O)=O)cc2)cc1-c1cccs1.Cl	235 °C (dec.)	
COc1cc(OC)c(-c2cc3ccccc3s2)cc1/C=C/C(=O)c1ccc(C(=O)O)cc1 (as salt: salt) [Example 120, 4-[3E-(5-Benzo[b]thien-2-yl-2,4-dimethoxyphenyl)-acryloyl]-benzoic acid, N-methyl-D-glucamine salt]	75 to 80 °C	
O=C([O-])c1ccc(/C=C/C(=O)c2ccc(-c3cccs3)cc2)cc1.[Na+] [Example 17, 4-[3-{4-(thien-2-yl)-phenyl}-3-oxo-E-propenyl]-benzoic acid, sodium salt]	> 260 °C	
COc1cc(OC)c(-c2cc3ccccc3s2)cc1/C=C/C(=O)c1ccc(SCC(=O)O)cc1 [Example 23, {4-[3E-(5-Benzo[b]thiophen-2-yl-2,4-dimethoxy-phenyl)-acryloyl]-phenylthio}-acetic acid]		< 1 µM
O=C(/C=C/c1ccc(-c2cccs2)cc1)c1ccc(SC(F)(F)C(=O)O)cc1 [Example 25, Difluoro-{4-[3E-(4-thiophen-2-yl-phenyl)-acryloyl]-phenylthio}-acetic acid, sodium salt]		> 10 µM
COc1cc(/C=C/C(=O)c2ccc3c(ccn3C)c2)cc(-c2cccs2)c1OC [Example 28, 3E-(3,4-Dimethoxy-5-thiophen-2-yl-phenyl)-1-(1-methyl-1H-indol-5-yl)-propenone]		< 5 µM
COC(=O)c1ccc(-c2cc(/C=C/C(=O)c3ccc(C(=O)O)cc3)c(OC)cc2OC)s1 [Example 51, 5-{5-[3-(4-Carboxy-phenyl)-3-oxo-E-propenyl]-2,4-dimethoxy-phenyl}-thiophene-2-carboxylic acid methyl ester]		< 5 µM
COc1cc(OC)c(-c2ccc(C(=O)O)s2)cc1/C=C/C(=O)c1ccc(C(=O)O)cc1 [Example 52, 5-{5-[3-(4-Carboxy-phenyl)-3-oxo-E-propenyl]-2,4-dimethoxy-phenyl}-thiophene-2-carboxylic acid]		> 10 µM
COc1cc(OC)c(-c2cc3ccccc3s2)cc1/C=C/C(=O)c1ccc(C(=O)[O-])cc1.[Na+] [Example 56, 4-[3E-(5-Benzo[b]thiophen-2-yl-2,4-dimethoxy-phenyl)-acryloyl]-benzoic acid, sodium salt]	> 235 °C	
COc1cc(OC(C)(C)C(=O)O)c(/C=C/C(=O)c2ccc(C(=O)O)cc2)cc1-c1cccs1 [Example 59, 4-{3E-[2-(1-Carboxy-1-methyl-ethoxy)-4-methoxy-5-thiophen-2-yl-phenyl]-acryloyl}-benzoic acid]	223 to 225 °C	
O=C(O)c1ccc(C(=O)/C=C/c2cc(-c3cccs3)ccc2N2CCCC2)cc1 [Example 63, 4-[3E-(2-Pyrrolidin-1-yl-5-thiophen-2-yl-phenyl)-acryloyl]-benzoic acid]		< 10 µM
COc1cc(OCC(N)=O)c(/C=C/C(=O)c2ccc(C(=O)O)cc2)cc1-c1cccs1 [Example 71, 4-[3E-(2-Carbamoylmethoxy-4-methoxy-5-thiophen-2-yl-phenyl)-acryloyl]-benzoic acid]	235 °C (dec.)	
COc1cc(OCC(=O)N2CCOCC2)c(/C=C/C(=O)c2ccc(C(=O)O)cc2)cc1-c1cccs1 [Example 72, 4-{3E-[4-Methoxy-2-(2-morpholin-4-yl-2-oxo-ethoxy)-5-thiophen-2-yl-phenyl]-acryloyl}-benzoic acid]	231 to 233 °C	
COc1cc(OCCC2CCCN2C)c(/C=C/C(=O)c2ccc(C(=O)O)cc2)cc1-c1cccs1.Cl (stereo not drawn) [Example 73, 4-(3E-{4-Methoxy-2-[2-(1-methyl-pyrrolidin-2-yl)-ethoxy]-5-thiophen-2-yl-phenyl}-acryloyl)-benzoic acid, hydrochloride]	206 to 208 °C	
COc1cc(OC)c(-c2cccs2)cc1/C=C/C(=O)c1ccc(C(C)(C)C(=O)O)cc1 [Example 77, 2-{4-[3E-(2,4-Dimethoxy-5-thiophen-2-yl-phenyl)-acryloyl]-phenyl}-2-methyl-propionic acid]		< 5 µM
COc1cc(OC(C)(C)C(=O)O)c(/C=C/C(=O)c2ccc(S(N)(=O)=O)cc2)cc1-c1cccs1 [Example 82, 2-{5-Methoxy-2-[3-oxo-3-(4-aminosulfonyl-phenyl)-E-propenyl]-4-thiophen-2-yl-phenoxy}-2-methyl-propionic acid]	164 to 165 °C	
COc1cc(OCc2nnn[nH]2)c(/C=C/C(=O)c2ccc(S(N)(=O)=O)cc2)cc1-c1cccs1 [Example 89, 4-{3E-[4-Methoxy-2-(1H-tetrazol-5-ylmethoxy)-5-thiophen-2-yl-phenyl]-acryloyl}-benzenesulfonamide]	163 to 164 °C (dec.)	
O=C(O)CNC(=O)Nc1ccc(C(=O)/C=C/c2ccc(-c3cccs3)cc2)cc1 [Example 97, 4(3E-{4-[3-(4-Thiophen-2-yl-phenyl)-acryloyl]-phenyl}-ureido)-acetic acid]	222 to 225 °C	
COc1cc(OC)c(-c2cccnc2)cc1/C=C/C(=O)c1ccc(S(N)(=O)=O)cc1 [Example 104, 4-[3E-(2,4-Dimethoxy-5-pyridin-3-yl-phenyl)-acryloyl]-benzenesulfonamide]	253 to 255 °C	
COc1cc(OC)c(-c2c[nH]c(C3CC3)n2)cc1/C=C/C(=O)c1ccc(C(=O)O)cc1.Cl [Example 105, 4-{3E-[5-(2-Cyclopropyl-1H-imidazol-4-yl)-2,4-dimethoxy-phenyl]-acryloyl}-benzoic acid, hydrochloride]	> 240 °C	
COc1cc(OC)c(-c2cc3ccccc3s2)cc1/C=C/C(=O)c1ccc(S(=O)(=O)c2ccccc2)cc1 [Example 107, 1-(4-Benzenesulfonyl-phenyl)-3E-(5-benzo[b]thiophen-2-yl-2,4-dimethoxy-phenyl)-propenone]	127 to 128 °C	
COc1cc(OC)c(-c2nncn2CC(C)C)cc1/C=C/C(=O)c1ccc(S(N)(=O)=O)cc1 [Example 109, 4-{3E-[5-(4-Isobutyl-4H-[1,2,4]triazol-3-yl)-2,4-dimethoxy-phenyl]-acryloyl}-benzenesulfonamide]	> 240 °C	
COc1cc(OC)c(-c2nc3cccnc3[nH]2)cc1/C=C/C(=O)c1ccc(S(N)(=O)=O)cc1 [Example 112, 4-{3E-[5-(3H-Imidazo[4,5-b]pyridin-2-yl)-2,4-dimethoxy-phenyl]-acryloyl}-benzenesulfonamide]	> 260 °C	
COc1cc(OC)c(-c2cc3ccccc3n2C)cc1/C=C/C(=O)c1ccc(C(=O)O)cc1 [Example 116, 4-{3E-[2,4-Dimethoxy-5-(1-methyl-1H-indol-2-yl)-phenyl]-acryloyl}-benzoic acid]	157 to 160 °C	
NS(=O)(=O)c1ccc(C(=O)/C=C/c2cccc(C3CC=CO3)c2)cc1 (stereo not drawn) [Example 119, 4-{3-[3E-(2,3-Dihydro-furan-2-yl)-phenyl]-acryloyl}-benzenesulfonamide]	152 to 153 °C	
COc1cc(OC)c(C2C=CCO2)cc1/C=C/C(=O)c1ccc(S(N)(=O)=O)cc1 (stereo not drawn) [Example 121, 4-{3E-[5-(2,5-Dihydro-furan-2-yl)-2,4-dimethoxy-phenyl]-acryloyl}-benzenesulfonamide]	194 to 195 °C	
COc1cc(Oc2cccc(C)n2)c(/C=C/C(=O)c2ccc(S(N)(=O)=O)cc2)cc1-c1cccs1 [Example 122, 4-{3E-[4-Methoxy-2-(6-methyl-pyridin-2-yloxy)-5-thiophen-2-yl-phenyl]-acryloyl}-benzenesulfonamide]	164 to 165 °C	
